Results: the CheMixHub ionic liquid set
± gives the uncertainty stated by the source.

Assay: xn = mol fraction of the nth substance listed

CO + CC[n+]1ccn(C)c1.F[B-](F)(F)F
101 kPa, x2 = 0
Conditions | viscosity [mPa·s]
303.15 K | 0.504 ± 0.051
313.15 K | 0.442 ± 0.044
323.15 K | 0.39 ± 0.039
333.15 K | 0.344 ± 0.034

CC[S+](CC)CCOCCOCCOCCOCC[S+](CC)CC.O=S(=O)([N-]S(=O)(=O)C(F)(F)F)C(F)(F)F.O=S(=O)([N-]S(=O)(=O)C(F)(F)F)C(F)(F)F + CC[n+]1ccn(C)c1.N#C[N-]C#N + O=S(=O)([N-]S(=O)(=O)C(F)(F)F)C(F)(F)F.[Li+]
100 kPa, x1 = 0.1416, x2 = 0.7549
Conditions | electrical conductivity [S/m]
298 K | 0.679 ± 0.027
303 K | 0.979 ± 0.039
313 K | 1.29 ± 0.052
323 K | 1.7 ± 0.068
333 K | 2.05 ± 0.082
343 K | 2.41 ± 0.096

C[N+]1(CCOCC[N+]2(C)CCCC2)CCCC1.O=S(=O)([N-]S(=O)(=O)C(F)(F)F)C(F)(F)F.O=S(=O)([N-]S(=O)(=O)C(F)(F)F)C(F)(F)F + CC[n+]1ccn(C)c1.N#C[N-]C#N + O=S(=O)([N-]S(=O)(=O)C(F)(F)F)C(F)(F)F.[Li+]
100 kPa, x1 = 0.1626, x2 = 0.7364
Conditions | electrical conductivity [S/m]
298 K | 0.806 ± 0.032
303 K | 1.08 ± 0.043
313 K | 1.43 ± 0.057
323 K | 1.82 ± 0.073
333 K | 2.2 ± 0.088
343 K | 2.65 ± 0.11

CO + CC[n+]1ccn(C)c1.N#C[S-]
100 kPa, x2 = 0
Conditions | viscosity [mPa·s]
298.15 K | 0.54
318.15 K | 0.43

CCCC[n+]1ccn(C)c1.CCOS(=O)(=O)[O-] + CC[n+]1ccn(C)c1.O=S(=O)([N-]S(=O)(=O)C(F)(F)F)C(F)(F)F
298.15 K, 100 kPa
Conditions | viscosity [mPa·s]
x2 = 0 | 255.2 ± 7.6
x2 = 0.5013 | 87.6 ± 1.5
x2 = 0.7113 | 57.11 ± 0.83

CC[n+]1ccn(C)c1.F[B-](F)(F)F + CC[n+]1ccn(C)c1.O=S(=O)([N-]S(=O)(=O)C(F)(F)F)C(F)(F)F
100 kPa, x2 = 0
Conditions | electrical conductivity [S/m] | viscosity [mPa·s]
243.15 K | 0.026 ± 0.003 | –
248.15 K | 0.043 ± 0.005 | –
253.15 K | 0.066 ± 0.007 | 308 ± 35
258.15 K | 0.096 ± 0.01 | –
263.15 K | 0.135 ± 0.014 | 152 ± 16
268.15 K | 0.184 ± 0.019 | –
273.15 K | 0.243 ± 0.025 | 85.2 ± 8.6
278.15 K | 0.313 ± 0.032 | –
283.15 K | 0.395 ± 0.04 | 52.4 ± 5.2
288.15 K | 0.488 ± 0.049 | –
293.15 K | 0.594 ± 0.06 | 34.6 ± 3.5
298.15 K | 0.712 ± 0.072 | –
303.15 K | – | 24.2 ± 2.4
313.15 K | – | 17.8 ± 1.8
323.15 K | – | 13.5 ± 1.4
333.15 K | – | 10.6 ± 1.1

CO + CC[n+]1ccn(C)c1.O=S(=O)([N-]S(=O)(=O)C(F)(F)F)C(F)(F)F
100 kPa, x1 = 1
Conditions | viscosity [mPa·s]
298.15 K | 0.55 ± 0.2
308.15 K | 0.48 ± 0.2
318.15 K | 0.43 ± 0.2

Cc1cnc[nH]1 + CC[n+]1ccn(C)c1.[Cl-]
101.33 kPa, x2 = 0.667
Conditions | viscosity [mPa·s]
303.15 K | 326 ± 12
313.15 K | 151.3 ± 4.8
323.15 K | 84.8 ± 2.2
333.15 K | 51.8 ± 1.2
343.15 K | 32.73 ± 0.76
353.15 K | 22.56 ± 0.52

CO + CC[n+]1ccn(C)c1C.F[B-](F)(F)F
Conditions | viscosity [mPa·s]
308.15 K, 101.3 kPa, x2 = 0 | 0.467 ± 0.044

CC[n+]1ccn(C)c1.F[B-](F)(F)F + CN(C)C=O
101 kPa
Conditions | viscosity [mPa·s]
303.15 K, x2 = 0.2016 | 16.52 ± 0.25
313.15 K, x2 = 0 | 20.41 ± 0.33
313.15 K, x2 = 0.3987 | 7.35 ± 0.1
313.15 K, x2 = 0.5005 | 5.397 ± 0.075
313.15 K, x2 = 0.7997 | 1.806 ± 0.024
323.15 K, x2 = 0 | 15.35 ± 0.25
323.15 K, x2 = 0.2994 | 7.73 ± 0.11
323.15 K, x2 = 0.5005 | 4.475 ± 0.062
323.15 K, x2 = 0.6004 | 3.226 ± 0.044
323.15 K, x2 = 0.8999 | 1.01 ± 0.013

CC[n+]1ccn(C)c1.COP(=O)([O-])OC + CO
101 kPa
Conditions | viscosity [mPa·s]
298.15 K, x2 = 0.598 | 20.62 ± 0.24
318.15 K, x2 = 0.799 | 3.265 ± 0.039
328.15 K, x2 = 0.399 | 20.82 ± 0.23
333.15 K, x2 = 0.399 | 18.06 ± 0.18

CC[n+]1ccn(C)c1.F[B-](F)(F)F + CO
viscosity [mPa·s], 101 kPa
Conditions | x1 = 0.0999 | x1 = 0.2 | x1 = 0.3 | x1 = 0.3996 | x1 = 0.5005 | x1 = 0.5973 | x1 = 0.7011 | x1 = 0.8013 | x1 = 0.8995 | x1 = 1
303.15 K | 0.945 ± 0.095 | 1.6 ± 0.16 | 2.45 ± 0.25 | 3.62 ± 0.36 | 5.25 ± 0.53 | 7.32 ± 0.73 | 10.4 ± 1 | 14.5 ± 1.5 | 20 ± 2 | 28 ± 2.8
313.15 K | 0.822 ± 0.082 | 1.36 ± 0.14 | 2.08 ± 0.21 | 3.03 ± 0.3 | 4.34 ± 0.44 | 5.96 ± 0.6 | 8.24 ± 0.83 | 11.2 ± 1.1 | 15.1 ± 1.5 | 20.4 ± 2.1
323.15 K | 0.718 ± 0.072 | 1.19 ± 0.12 | 1.79 ± 0.18 | 2.6 ± 0.26 | 3.67 ± 0.37 | 4.96 ± 0.5 | 6.82 ± 0.68 | 8.97 ± 0.9 | 11.7 ± 1.2 | 15.3 ± 1.5
333.15 K | 0.636 ± 0.064 | 1.06 ± 0.11 | 1.6 ± 0.16 | 2.3 ± 0.23 | 3.24 ± 0.32 | 4.25 ± 0.43 | 5.74 ± 0.58 | 7.47 ± 0.75 | 9.43 ± 0.95 | 12.1 ± 1.2

CC[n+]1ccn(C)c1.O=S(=O)([N-]S(=O)(=O)C(F)(F)F)C(F)(F)F + CO
100 kPa
Conditions | viscosity [mPa·s]
298.15 K, x2 = 0.5988 | 6.44 ± 0.31
308.15 K, x2 = 0.4005 | 9.17 ± 0.32
308.15 K, x2 = 0.8978 | 1.32 ± 0.3
313.15 K, x2 = 0.4005 | 8.11 ± 0.31
313.15 K, x2 = 0.5088 | 6.09 ± 0.31
313.15 K, x2 = 0.6909 | 3.44 ± 0.3
318.15 K, x2 = 0.1965 | 11.67 ± 0.42
323.15 K, x2 = 0.7961 | 1.82 ± 0.3
